Experimental data: ChEMBL document CHEMBL3632622, “Synthesis and biological evaluation of novel N-phenyl ureidobenzenesulfonate derivatives as potential anticancer agents. Part 2. Modulation of the ring B” (Eur J Med Chem, 2015)

Tests used:
HT-29 = experiment: Antiproliferative activity against human HT-29 cells assessed as growth inhibition incubated for 48 hrs by sulforhodamine B assay; format: functional, cell-based; settings: HT-29, 48 h
M21 [1] = experiment: Cell cycle arrest in human M21 cells assessed as accumulation at S phase at 11 uM after 24 hrs by DAPI staining-based flow cytometry (reference value: 17.4%); format: functional
[2] = Antiproliferative activity against human HT1080 cells assessed as growth inhibition incubated for 48 hrs by sulforhodamine B assay; format: functional, cell-based, HT-1080; settings: Homo sapiens, HT-1080, 48 h; read-out: IC50
M21 [3] = experiment: Cell cycle arrest in human M21 cells assessed as accumulation at G0/G1 phase at 11 uM after 24 hrs by DAPI staining-based flow cytometry (reference value: 65.1%); format: functional
M21 [4] = experiment: Cell cycle arrest in human M21 cells assessed as accumulation at subG1 phase at 11 uM after 24 hrs by DAPI staining-based flow cytometry (reference value: 1.5%); format: functional
M21 [5] = experiment: Cell cycle arrest in human M21 cells assessed as accumulation at G2/M phase at 11 uM after 24 hrs by DAPI staining-based flow cytometry (reference value: 16%); format: functional
M21 [6] = experiment: Antiproliferative activity against human M21 cells assessed as growth inhibition incubated for 48 hrs by sulforhodamine B assay; format: functional, cell-based; settings: M21, 48 h
MCF7 = experiment: Antiproliferative activity against human MCF7 cells assessed as growth inhibition incubated for 48 hrs by sulforhodamine B assay; format: functional, cell-based; settings: MCF7, 48 h
M21 [7] = experiment: Cell cycle arrest in human M21 cells assessed as accumulation at G0/G1 phase at 49 uM after 24 hrs by DAPI staining-based flow cytometry (reference value: 65.1%); format: functional
M21 [8] = experiment: Cell cycle arrest in human M21 cells assessed as accumulation at G2/M phase at 49 uM after 24 hrs by DAPI staining-based flow cytometry (reference value: 16%); format: functional
M21 [9] = experiment: Cell cycle arrest in human M21 cells assessed as accumulation at subG1 phase at 49 uM after 24 hrs by DAPI staining-based flow cytometry (reference value: 1.5%); format: functional
M21 [10] = experiment: Cell cycle arrest in human M21 cells assessed as accumulation at S phase at 49 uM after 24 hrs by DAPI staining-based flow cytometry (reference value: 17.4%); format: functional
M21 [11] = experiment: Cell cycle arrest in human M21 cells assessed as accumulation at G0/G1 phase at 42 uM after 24 hrs by DAPI staining-based flow cytometry (reference value: 65.1%); format: functional
M21 [12] = experiment: Cell cycle arrest in human M21 cells assessed as accumulation at S phase at 42 uM after 24 hrs by DAPI staining-based flow cytometry (reference value: 17.4%); format: functional
M21 [13] = experiment: Cell cycle arrest in human M21 cells assessed as accumulation at subG1 phase at 42 uM after 24 hrs by DAPI staining-based flow cytometry (reference value: 1.5%); format: functional
M21 [14] = experiment: Cell cycle arrest in human M21 cells assessed as accumulation at G2/M phase at 42 uM after 24 hrs by DAPI staining-based flow cytometry (reference value: 16%); format: functional
M21 [15] = experiment: Cell cycle arrest in human M21 cells assessed as accumulation at G0/G1 phase at 22 uM after 24 hrs by DAPI staining-based flow cytometry (reference value: 65.1%); format: functional
M21 [16] = experiment: Cell cycle arrest in human M21 cells assessed as accumulation at S phase at 22 uM after 24 hrs by DAPI staining-based flow cytometry (reference value: 17.4%); format: functional
M21 [17] = experiment: Cell cycle arrest in human M21 cells assessed as accumulation at subG1 phase at 22 uM after 24 hrs by DAPI staining-based flow cytometry (reference value: 1.5%); format: functional
M21 [18] = experiment: Cell cycle arrest in human M21 cells assessed as accumulation at G2/M phase at 22 uM after 24 hrs by DAPI staining-based flow cytometry (reference value: 16%); format: functional
M21 [19] = experiment: Cell cycle arrest in human M21 cells assessed as accumulation at G2/M phase at 32 uM after 24 hrs by DAPI staining-based flow cytometry (reference value: 16%); format: functional
M21 [20] = experiment: Cell cycle arrest in human M21 cells assessed as accumulation at subG1 phase at 32 uM after 24 hrs by DAPI staining-based flow cytometry (reference value: 1.5%); format: functional
M21 [21] = experiment: Cell cycle arrest in human M21 cells assessed as accumulation at G0/G1 phase at 32 uM after 24 hrs by DAPI staining-based flow cytometry (reference value: 65.1%); format: functional
M21 [22] = experiment: Cell cycle arrest in human M21 cells assessed as accumulation at S phase at 32 uM after 24 hrs by DAPI staining-based flow cytometry (reference value: 17.4%); format: functional
M21 [23] = experiment: Cell cycle arrest in human M21 cells assessed as accumulation at S phase at 25 uM after 24 hrs by DAPI staining-based flow cytometry (reference value: 17.4%); format: functional
M21 [24] = experiment: Cell cycle arrest in human M21 cells assessed as accumulation at subG1 phase at 25 uM after 24 hrs by DAPI staining-based flow cytometry (reference value: 1.5%); format: functional
M21 [25] = experiment: Cell cycle arrest in human M21 cells assessed as accumulation at G2/M phase at 25 uM after 24 hrs by DAPI staining-based flow cytometry (reference value: 16%); format: functional
M21 [26] = experiment: Cell cycle arrest in human M21 cells assessed as accumulation at G0/G1 phase at 25 uM after 24 hrs by DAPI staining-based flow cytometry (reference value: 65.1%); format: functional
M21 [27] = experiment: Cell cycle arrest in human M21 cells assessed as accumulation at G0/G1 phase at 7.5 uM after 24 hrs by DAPI staining-based flow cytometry (reference value: 65.1%); format: functional
M21 [28] = experiment: Cell cycle arrest in human M21 cells assessed as accumulation at subG1 phase at 7.5 uM after 24 hrs by DAPI staining-based flow cytometry (reference value: 1.5%); format: functional
M21 [29] = experiment: Cell cycle arrest in human M21 cells assessed as accumulation at G2/M phase at 7.5 uM after 24 hrs by DAPI staining-based flow cytometry (reference value: 16%); format: functional
M21 [30] = experiment: Cell cycle arrest in human M21 cells assessed as accumulation at S phase at 7.5 uM after 24 hrs by DAPI staining-based flow cytometry (reference value: 17.4%); format: functional
M21 [31] = experiment: Cell cycle arrest in human M21 cells assessed as accumulation at subG1 phase at 43 uM after 24 hrs by DAPI staining-based flow cytometry (reference value: 1.5%); format: functional
M21 [32] = experiment: Cell cycle arrest in human M21 cells assessed as accumulation at G2/M phase at 43 uM after 24 hrs by DAPI staining-based flow cytometry (reference value: 16%); format: functional
M21 [33] = experiment: Cell cycle arrest in human M21 cells assessed as accumulation at G0/G1 phase at 43 uM after 24 hrs by DAPI staining-based flow cytometry (reference value: 65.1%); format: functional
M21 [34] = experiment: Cell cycle arrest in human M21 cells assessed as accumulation at S phase at 43 uM after 24 hrs by DAPI staining-based flow cytometry (reference value: 17.4%); format: functional
M21 [35] = experiment: Cell cycle arrest in human M21 cells assessed as accumulation at S phase at 40 uM after 24 hrs by DAPI staining-based flow cytometry (reference value: 17.4%); format: functional
M21 [36] = experiment: Cell cycle arrest in human M21 cells assessed as accumulation at G0/G1 phase at 40 uM after 24 hrs by DAPI staining-based flow cytometry (reference value: 65.1%); format: functional
M21 [37] = experiment: Cell cycle arrest in human M21 cells assessed as accumulation at subG1 phase at 40 uM after 24 hrs by DAPI staining-based flow cytometry (reference value: 1.5%); format: functional
M21 [38] = experiment: Cell cycle arrest in human M21 cells assessed as accumulation at G2/M phase at 40 uM after 24 hrs by DAPI staining-based flow cytometry (reference value: 16%); format: functional
M21 [39] = experiment: Cell cycle arrest in human M21 cells assessed as accumulation at subG1 phase at 1.2 uM after 24 hrs by DAPI staining-based flow cytometry (reference value: 1.5%); format: functional
M21 [40] = experiment: Cell cycle arrest in human M21 cells assessed as accumulation at G2/M phase at 1.2 uM after 24 hrs by DAPI staining-based flow cytometry (reference value: 16%); format: functional
M21 [41] = experiment: Cell cycle arrest in human M21 cells assessed as accumulation at G0/G1 phase at 1.2 uM after 24 hrs by DAPI staining-based flow cytometry (reference value: 65.1%); format: functional
M21 [42] = experiment: Cell cycle arrest in human M21 cells assessed as accumulation at S phase at 1.2 uM after 24 hrs by DAPI staining-based flow cytometry (reference value: 17.4%); format: functional
M21 [43] = experiment: Cell cycle arrest in human M21 cells assessed as accumulation at G2/M phase at 1.7 uM after 24 hrs by DAPI staining-based flow cytometry (reference value: 16%); format: functional
M21 [44] = experiment: Cell cycle arrest in human M21 cells assessed as accumulation at subG1 phase at 1.7 uM after 24 hrs by DAPI staining-based flow cytometry (reference value: 1.5%); format: functional
M21 [45] = experiment: Cell cycle arrest in human M21 cells assessed as accumulation at S phase at 1.7 uM after 24 hrs by DAPI staining-based flow cytometry (reference value: 17.4%); format: functional
M21 [46] = experiment: Cell cycle arrest in human M21 cells assessed as accumulation at G0/G1 phase at 1.7 uM after 24 hrs by DAPI staining-based flow cytometry (reference value: 65.1%); format: functional
M21 [47] = experiment: Cell cycle arrest in human M21 cells assessed as accumulation at subG1 phase at 3.8 uM after 24 hrs by DAPI staining-based flow cytometry (reference value: 1.5%); format: functional
M21 [48] = experiment: Cell cycle arrest in human M21 cells assessed as accumulation at G2/M phase at 3.8 uM after 24 hrs by DAPI staining-based flow cytometry (reference value: 16%); format: functional
M21 [49] = experiment: Cell cycle arrest in human M21 cells assessed as accumulation at S phase at 3.8 uM after 24 hrs by DAPI staining-based flow cytometry (reference value: 17.4%); format: functional
M21 [50] = experiment: Cell cycle arrest in human M21 cells assessed as accumulation at G0/G1 phase at 3.8 uM after 24 hrs by DAPI staining-based flow cytometry (reference value: 65.1%); format: functional

Row | Compound | IC50 (HT-29) | IC50 [2] | IC50 (M21 [6]) | IC50 (MCF7) | also measured
1 | CCOc1cccc(OS(=O)(=O)c2ccc(NC(=O)NCCCl)cc2)c1 | 3.2 µM | 3.3 µM | 2.4 µM | 3.3 µM | Activity (M21 [1]): 13.5%; Activity (M21 [3]): 22.2%; Activity (M21 [4]): 8.4%; Activity (M21 [5]): 55.9%
2 | CCOc1ccc(OS(=O)(=O)c2ccc(NC(=O)NCCCl)cc2)cc1 | 7.8 µM | 8.3 µM | 8.3 µM | 9.5 µM | Activity (M21 [7]): 13.4%; Activity (M21 [8]): 74.9%; Activity (M21 [9]): 3.5%; Activity (M21 [10]): 8.2%
3 | O=C(NCCCl)Nc1ccc(S(=O)(=O)Oc2ccc(F)c(F)c2)cc1 | 7 µM | 8.1 µM | 7.3 µM | 8.9 µM | Activity (M21 [11]): 11.6%; Activity (M21 [12]): 18.3%; Activity (M21 [13]): 7.6%; Activity (M21 [14]): 62.5%
4 | CCCc1cccc(OS(=O)(=O)c2ccc(NC(=O)NCCCl)cc2)c1 | 3.4 µM | 2.6 µM | 3.3 µM | 3.9 µM | Activity (M21 [15]): 9.9%; Activity (M21 [16]): 5.8%; Activity (M21 [17]): 6%; Activity (M21 [18]): 78.3%
5 | O=C(NCCCl)Nc1ccc(S(=O)(=O)Oc2cc(F)cc(F)c2)cc1 | 4.8 µM | 5.7 µM | 5 µM | 5.7 µM | Activity (M21 [19]): 75.7%; Activity (M21 [20]): 6.7%; Activity (M21 [21]): 7.4%; Activity (M21 [22]): 10.2%
6 | COc1cccc(OS(=O)(=O)c2ccc(NC(=O)NCCCl)cc2)c1 | 3.8 µM | 3.1 µM | 3.6 µM | 4.2 µM | Activity (M21 [23]): 6.3%; Activity (M21 [24]): 3.5%; Activity (M21 [25]): 87.7%; Activity (M21 [26]): 2.5%
7 | COc1cc(OC)cc(OS(=O)(=O)c2ccc(NC(=O)NCCCl)cc2)c1 | 1.1 µM | 1.5 µM | 1.1 µM | 2 µM | Activity (M21 [27]): 9.3%; Activity (M21 [28]): 11.4%; Activity (M21 [29]): 74.1%; Activity (M21 [30]): 5.2%
8 | CCCCOc1ccc(OS(=O)(=O)c2ccc(NC(=O)NCCCl)cc2)cc1 | 6.5 µM | 3.4 µM | 7.7 µM | 7.1 µM | Activity (M21 [31]): 8.3%; Activity (M21 [32]): 42.9%; Activity (M21 [33]): 39.7%; Activity (M21 [34]): 9.1%
9 | O=C(NCCCl)Nc1ccc(S(=O)(=O)Oc2ccc(Br)cc2)cc1 | 8.3 µM | 9.6 µM | 8.1 µM | 9.4 µM | Activity (M21 [35]): 4.4%; Activity (M21 [36]): 12%; Activity (M21 [37]): 7.5%; Activity (M21 [38]): 76.1%
10 | O=C(NCCCl)Nc1ccc(S(=O)(=O)Oc2cc(Br)cc(Br)c2)cc1 | 0.3 µM | 0.4 µM | 0.24 µM | 0.4 µM | Activity (M21 [39]): 7.1%; Activity (M21 [40]): 83.4%; Activity (M21 [41]): 2.6%; Activity (M21 [42]): 6.9%
11 | COc1cc(OS(=O)(=O)c2ccc(NC(=O)NCCCl)cc2)cc(OC)c1OC | 0.5 µM | 0.64 µM | 0.47 µM | 0.66 µM | Activity (M21 [43]): 66.1%; Activity (M21 [44]): 9.3%; Activity (M21 [45]): 9%; Activity (M21 [46]): 15.6%
12 | O=C(NCCCl)Nc1ccc(S(=O)(=O)Oc2cc(Cl)cc(Cl)c2)cc1 | 0.55 µM | 1.1 µM | 0.51 µM | 1 µM | Activity (M21 [47]): 7.2%; Activity (M21 [48]): 84.3%; Activity (M21 [49]): 6%; Activity (M21 [50]): 2.5%
